Drawing on PubChem BioAssay AID328 (DTP/NCI, 2004), this text covers T/C for 22 compounds.

Values joined by “and” are separate entries in the source; they are usually repeats but may differ in a detail not shown here. Equal values may be shown once. Toxic doses and inconclusive results are not listed.

This test concerns BDF1 mice, P388 leukemia ip, median survival T/C. Description: NCI In Vivo Anticancer Drug Screen. Data for tumor model P388 Leukemia (intraperitoneal) in B6D2F1 (BDF1) mice. Particulars: endpoint: median survival time, higher = longer survival. The method, then: The antitumor activity of compounds was measured in mice bearing transplantable tumors. Survival or tumor size were measured and the results are expressed as the measurement made in the treated group (T) divided by the measurement made in the vehicle treated control group (C). The tumor model used in this assay is P388 Leukemia (intraperitoneal) in B6D2F1 (BDF1) mice

The mark [1] stands for this setting: dose: 50.0 mg/kg/injection, schedule: Q04DX003 (ip), vehicle: saline with Tween-80.
[2] abbreviates: dose: 100.0 mg/kg/injection, schedule: Q04DX003 (ip), vehicle: saline with Tween-80.
[3] abbreviates: dose: 400.0 mg/kg/injection, schedule: Q04DX003 (ip), vehicle: saline with Tween-80.
Where [4] appears, read: dose: 12.5 mg/kg/injection, schedule: Q01DX009 (ip), vehicle: saline with Tween-80.
[5] abbreviates: dose: 25.0 mg/kg/injection, schedule: Q01DX009 (ip), vehicle: saline with Tween-80.
[6] abbreviates: dose: 50.0 mg/kg/injection, schedule: Q01DX009 (ip), vehicle: saline with Tween-80.
Setting [7] is: dose: 100.0 mg/kg/injection, schedule: Q04DX003 (ip), vehicle: saline.
Setting [8] is: dose: 200.0 mg/kg/injection, schedule: Q04DX003 (ip), vehicle: saline.
Setting [9] is: dose: 25.0 mg/kg/injection, schedule: Q04DX003 (ip), vehicle: saline with Tween-80.
The mark [10] stands for this setting: dose: 100.0 mg/kg/injection, schedule: Q01DX009 (ip), vehicle: saline with Tween-80.
Setting [11] is: dose: 200.0 mg/kg/injection, schedule: Q04DX003 (ip), vehicle: saline with Tween-80.
Where [12] appears, read: dose: 200.0 mg/kg/injection, schedule: Q01DX009 (ip), vehicle: saline with Tween-80.
Setting [13] is: dose: 400.0 mg/kg/injection, schedule: Q01DX009 (ip), vehicle: saline with Tween-80.
The mark [14] stands for this setting: dose: 50.0 mg/kg/injection, schedule: Q04DX003 (ip), vehicle: saline.

In the case of `COc1ccc2c3c(c4cc(OC)c(OC)cc4c2c1)C[C@H]1CCCCN1C3`, the T/C is 100 % of control (dose: 0.25 mg/kg/injection, schedule: Q01DX010 (ip), vehicle: saline); 120 % of control (dose: 0.5 mg/kg/injection, schedule: Q01DX010 (ip), vehicle: saline); 120 % of control (dose: 1.0 mg/kg/injection, schedule: Q01DX010 (ip), vehicle: saline); 91 % of control (dose: 2.0 mg/kg/injection, schedule: Q01DX010 (ip), vehicle: saline).
Turning to `C#CCOCC(CCl)OC(=O)Nc1ccccc1` (stereo unspecified), the T/C was 95 % of control (dose: 25.0 mg/kg/injection, schedule: Q01DX009 (ip), vehicle: saline); 104 % of control (dose: 50.0 mg/kg/injection, schedule: Q01DX009 (ip), vehicle: saline); 87 % of control under setting [1]; 104 % of control (dose: 100.0 mg/kg/injection, schedule: Q01DX009 (ip), vehicle: saline); 95 % of control under setting [2]; 109 % of control (dose: 200.0 mg/kg/injection, schedule: Q01DX009 (ip), vehicle: saline). Under setting [3], the T/C was 100 % of control.
Regarding `O=C1NC2C(NC(=O)N2Cl)N1Cl` (stereo unspecified), the T/C reads like this: under setting [4], 103 % of control; under setting [5], 100 % of control; under setting [6], 103 % of control.
Take `CCOC(=O)C(=Cc1ccc(O)c(OC)c1)C(=O)OCC`: the T/C was 90 % of control (dose: 100.0 mg/kg/injection, schedule: Q01DX001 (ip), vehicle: saline with Tween-80); 95 % of control (dose: 200.0 mg/kg/injection, schedule: Q01DX001 (ip), vehicle: saline with Tween-80); 104 % of control (dose: 400.0 mg/kg/injection, schedule: Q01DX001 (ip), vehicle: saline with Tween-80).
Consider `O=S(=O)(O)CNc1ccccc1`, for which the T/C under setting [7] is 100 % of control; the T/C under setting [8] was 109 % of control; the T/C (dose: 400.0 mg/kg/injection, schedule: Q04DX003 (ip), vehicle: saline) is 95 % of control.
As for `O[O][Ge]([c]1ccccc1)([c]1ccccc1)[c]1ccccc1`, the T/C is 100 % of control (dose: 100.0 mg/kg/injection, schedule: Q01DX001 (ip), vehicle: Klucel (hydroxypropylcellulose) (HPC)); 100 % of control (dose: 200.0 mg/kg/injection, schedule: Q01DX001 (ip), vehicle: Klucel (hydroxypropylcellulose) (HPC)); 100 % of control (dose: 400.0 mg/kg/injection, schedule: Q01DX001 (ip), vehicle: Klucel (hydroxypropylcellulose) (HPC)).
Turning to `CCNC(C)(C)C(S)c1ccc(Cl)s1` (stereo unspecified), the T/C was 93 % of control under setting [4]; 93 % of control under setting [5]; 101 % of control under setting [9]; 91 % of control and 104 % of control under setting [6]; 91 % of control under setting [1]; 108 % of control (dose: 75.0 mg/kg/injection, schedule: Q04DX003 (ip), vehicle: saline with Tween-80). Besides, the T/C by setting is: under setting [10], 94 % of control and 109 % of control; under setting [2], 114 % of control; under setting [11], 116 % of control.
Regarding `CC1(C)C(=O)C2(C(=O)O)CCC1C2` (stereo unspecified), the T/C under setting [10] was 100 % of control; the T/C under setting [2] is 95 % of control; the T/C under setting [12] was 95 % of control; the T/C under setting [11] was 109 % of control; the T/C under setting [13] was 100 % of control; the T/C under setting [3] was 100 % of control.
On to `CC(=O)N1C(=O)NC(=O)C1(C)c1ccc(Cl)s1` (stereo unspecified), for which the T/C reads like this: under setting [6], 92 % of control; under setting [10], 97 % of control; under setting [2], 100 % of control; under setting [12], 113 % of control; under setting [11], 100 % of control; under setting [13], 106 % of control.
As to `CCOC(=O)CCC(C)(c1ccc(O)cc1)c1ccc(O)cc1`, the T/C (dose: 50.0 mg/kg/injection, schedule: Q01DX009 (ip), vehicle: gum acacia) is 95 % of control; the T/C (dose: 100.0 mg/kg/injection, schedule: Q01DX009 (ip), vehicle: gum acacia) is 108 % of control; the T/C (dose: 100.0 mg/kg/injection, schedule: Q04DX003 (ip), vehicle: gum acacia) is 104 % of control; the T/C (dose: 200.0 mg/kg/injection, schedule: Q01DX009 (ip), vehicle: gum acacia) is 100 % of control; the T/C (dose: 200.0 mg/kg/injection, schedule: Q04DX003 (ip), vehicle: gum acacia) is 104 % of control; the T/C (dose: 400.0 mg/kg/injection, schedule: Q04DX003 (ip), vehicle: gum acacia) is 104 % of control.
In the case of `CC12NC(=O)NC1(C)NC(=O)N2` (stereo unspecified), the T/C under setting [2] is 100 % of control and the T/C under setting [11] is 100 % of control.
For the compound `CCOCCc1ccncc1`, the T/C reads like this: under setting [14], 112 % of control; under setting [7], 108 % of control; under setting [8], 100 % of control.
For the compound `Nc1nc2nc(-c3ccccc3)nc(N)c2nc1Sc1ccc(Cl)cc1`, the T/C by setting is: under setting [2], 94 % of control; under setting [11], 103 % of control; under setting [3], 103 % of control.
As for `CCOC1c2cnc(C)n2C=CN1C(C)=O` (stereo unspecified), the T/C was 109 % of control (dose: 50.0 mg/kg/injection, schedule: Q04DX003 (ip), vehicle: water); 100 % of control and 104 % of control (dose: 100.0 mg/kg/injection, schedule: Q04DX003 (ip), vehicle: water); 101 % of control and 111 % of control (dose: 200.0 mg/kg/injection, schedule: Q04DX003 (ip), vehicle: water); 110 % of control (dose: 300.0 mg/kg/injection, schedule: Q04DX003 (ip), vehicle: water); 118 % of control (dose: 400.0 mg/kg/injection, schedule: Q04DX003 (ip), vehicle: water).
With `NP(=O)(N1CC1)N1CC1`, the T/C by setting is: (dose: 6.25 mg/kg/injection, schedule: Q04DX003 (ip), vehicle: saline) 100 % of control; (dose: 25.0 mg/kg/injection, schedule: Q04DX003 (ip), vehicle: saline) 230 % of control.
With `Cc1ccc(C(=O)O)cc1S(=O)(=O)F`, the T/C is 114 % of control under setting [5]; 104 % of control under setting [6]; 101 % of control under setting [1]; 98 % of control under setting [10]; 102 % of control under setting [2]; 104 % of control under setting [12]. Besides, the T/C was 101 % of control under setting [11]; 110 % of control (dose: 300.0 mg/kg/injection, schedule: Q01DX009 (ip), vehicle: saline with Tween-80); 123 % of control under setting [13]; 101 % of control under setting [3].
Consider `CN1NCc2cncnc21`, for which the T/C is 90 % of control under setting [6], 99 % of control under setting [10], 99 % of control under setting [12] and 90 % of control under setting [13].
Take `Cc1ccc(S(=O)(=O)NC(=O)OC23COCN2COC3)cc1`: the T/C under setting [6] was 116 % of control.
Take `O=C(CN1CC1)NCCCCCCCCCNC(=O)CN1CC1`: the T/C reads like this: (dose: 8.0 mg/kg/injection, schedule: Q04DX003 (ip), vehicle: saline) 122 % of control; (dose: 12.0 mg/kg/injection, schedule: Q04DX003 (ip), vehicle: saline) 122 % of control; (dose: 18.0 mg/kg/injection, schedule: Q04DX003 (ip), vehicle: saline) 122 % of control; (dose: 18.75 mg/kg/injection, schedule: Q04DX003 (ip), vehicle: saline sonified) 218 % of control; (dose: 37.5 mg/kg/injection, schedule: Q04DX003 (ip), vehicle: saline sonified) 172 % of control.
For the compound `CC(C)(O)C1C2OC(=O)C1C1(O)CC3OC34C(=O)OC2C14C` (stereo unspecified), the T/C was 109 % of control (dose: 12.5 mg/kg/injection, schedule: Q04DX003 (ip), vehicle: saline with Tween-80) and 95 % of control under setting [9].
`CC(C)OC(=O)Nc1ccccc1Cl`: the T/C under setting [14] is 95 % of control.
`O=S(c1ccccc1)C1Cc2ccccc2C1Cl` (stereo unspecified): the T/C by setting is: (dose: 50.0 mg/kg/injection, schedule: Q01DX009 (ip), vehicle: other) 107 % of control; (dose: 100.0 mg/kg/injection, schedule: Q01DX009 (ip), vehicle: other) 107 % of control; (dose: 200.0 mg/kg/injection, schedule: Q01DX009 (ip), vehicle: other) 115 % of control.
